Usually IC50 stands for the concentration needed to halve the response being measured. A higher IC50 goes with a need for much substance.

One experiment has as its target T1, A2A receptor (Homo sapiens, UniProt P29274).
T1 construct: host or cells: CHO-K1 (co-expressing Gα15)
The experiment is described as follows: Test 1: inhibitory activity to the A2A receptor, cAMP HTRF in CHO-K1/ADORA2A/Gα15 cells, NECA 50 nM. In kind it is cell-based. The method, then:
(§1) Test 1: Inhibitory Activities to the A2A Receptor and the A2B Receptor CHO-K1/ADORA2A/Gα15 (GenScript, M00246) and CHO-K1/ADORA2B/Gα15 (GenScript, M00329) cells were cultured in a Ham's F-12 (Gibco, 31765092) medium containing 10% FBS, Zeocin (200 ug/mL), and Hygromycin B (100 ug/mL), or containing 10% FBS, G418 (400 ug/mL), and Hygromycin B (100 ug/mL) under culture conditions specified in the corresponding instruction. Screening procedure was as follows: 1. The cell density was adjusted with a serum-free medium to 6×10^5 cells/mL. 2. 5 uL of cell solution, 2.5 μL of NECA (Sigma, 119140-10MG), and 2.5 μL of compound solution were placed into each well of a 384-well plate (Greiner Bio-One, 784075) in sequence, the final concentration of NECA was 50 nM (CHO-K1/ADORA2A) or 10 nM (CHO-K1/ADORA2B), and the compound solution was subjected to 3-fold dilution from the final concentration of 3 uM. 3. The cells were placed still and cultured in an incubator at 37° C. for 30 min. 4. 5 μL of cAMP-d2 and 5 μL of cAMP-ab (Cisbio, 62AM4PEB) were added in sequence. 5. The 384-well plate was placed in dark at the room temperature for 1 h. 6. The plate was read (Victor X5, PerkinElmer), data were analyzed by XLfit nonlinear regression, and IC50 values of the compounds were calculated.

The target in another experiment is T2, A2B receptor (Homo sapiens, UniProt P29275).
T2 construct: host or cells: CHO-K1 (co-expressing Gα15)
T2 sequence (P29275 1-332): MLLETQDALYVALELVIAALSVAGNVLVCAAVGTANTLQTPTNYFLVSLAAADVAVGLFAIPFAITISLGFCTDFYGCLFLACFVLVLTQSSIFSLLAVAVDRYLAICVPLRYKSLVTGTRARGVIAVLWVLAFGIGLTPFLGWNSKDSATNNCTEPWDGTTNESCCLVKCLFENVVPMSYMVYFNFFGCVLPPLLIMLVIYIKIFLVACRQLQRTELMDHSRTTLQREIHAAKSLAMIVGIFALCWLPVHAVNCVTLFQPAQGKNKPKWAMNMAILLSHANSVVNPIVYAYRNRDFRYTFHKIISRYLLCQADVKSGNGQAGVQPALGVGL
Briefly: Test 1: inhibitory activity to the A2B receptor, cAMP HTRF in CHO-K1/ADORA2B/Gα15 cells, NECA 10 nM. The class given is cell-based. The method, then:
as §1
On the technique in general: In TR-FRET formats the signal depends on donor and acceptor labels being close together.

T1 sequence (P29274 whole entry): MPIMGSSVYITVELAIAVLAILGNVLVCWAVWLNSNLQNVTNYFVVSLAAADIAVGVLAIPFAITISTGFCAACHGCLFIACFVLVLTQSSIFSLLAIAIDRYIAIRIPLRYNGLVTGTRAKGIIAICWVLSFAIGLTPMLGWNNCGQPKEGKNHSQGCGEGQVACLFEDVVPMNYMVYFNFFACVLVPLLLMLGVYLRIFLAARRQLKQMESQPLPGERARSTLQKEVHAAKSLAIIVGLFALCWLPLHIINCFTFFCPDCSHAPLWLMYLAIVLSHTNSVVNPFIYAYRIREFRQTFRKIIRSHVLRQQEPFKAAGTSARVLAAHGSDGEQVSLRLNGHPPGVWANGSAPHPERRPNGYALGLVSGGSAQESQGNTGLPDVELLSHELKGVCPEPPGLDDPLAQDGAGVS

For the compound `Cc1c(F)cccc1-c1nc(N)c(F)c(-c2cn(Cc3cccc(C(C)(C)O)n3)nn2)n1` [Compound L-14], the half-inhibitory concentration (IC50) worked out at 0.017 µM against A2A receptor and 0.014 µM on A2B receptor.

Turning to `CCn1ccc(Cn2cc(-c3nc(-c4cccc(C#N)c4C)nc(N)c3F)nn2)n1` [Compound L-30], the IC50 was less than 0.001 µM against A2A receptor and 0.001 µM against A2B receptor.

For `Cc1c(C#N)cccc1-c1nc(N)c(F)c(-c2cn(Cc3cccc(C4(O)CCC4)n3)nn2)n1` [Compound L-64], the half-maximal inhibitory concentration (IC50) was determined as 0.001 µM on A2A receptor and 0.004 µM at A2B receptor.

For the compound `Cc1c(C#N)cccc1-c1nc(N)c(F)c(-c2cn(Cc3ccn(C(C)C)n3)nn2)n1` [Compound L-75], the IC50 is less than 0.001 µM against A2A receptor and 0.0005 µM against A2B receptor.

Regarding `Cc1c(C#N)cccc1-c1nc(N)c(F)c(-c2cn(Cc3ccn(C4COC4)n3)nn2)n1` [Compound L-88], the half-inhibitory concentration (IC50) on A2A receptor was found to be 0.002 µM; on A2B receptor, 0.008 µM.

On to `Cc1c(C#N)cccc1-c1nc(N)c(F)c(-c2cn(Cc3ccn(C4CC(F)(F)C4)n3)nn2)n1` [Compound L-19], for which the values for the half-maximal inhibitory concentration (IC50) on A2A receptor and on A2B receptor were 0.003 µM and 0.006 µM, respectively.

In the case of `CC(C)(O)c1cccc(Cn2cc(-c3nc(-c4cccc(C#N)c4)nc4c3OCC(=O)N4)nn2)n1` [Compound L-4], the IC50 on A2A receptor stood at 0.001 µM; on A2B receptor, 0.006 µM.

Consider `Cc1c(C#N)cccc1-c1nc(N)c(F)c(-c2cn(Cc3ccn(CC(C)C)n3)nn2)n1` [Compound L-36], for which the results for the 50% inhibitory concentration (IC50) against A2A receptor and at A2B receptor were 0.001 µM and 0.01 µM, respectively.

In the case of `Cc1c(C#N)cccc1-c1nc(N)c(F)c(-c2cn(Cc3ccn(CC#N)n3)nn2)n1` [Compound L-97], the IC50 at A2A receptor is 0.006 µM; on A2B receptor, 0.005 µM.

Turning to `Cc1c(C#N)cccc1-c1nc(N)c(Cl)c(-c2cn(Cc3cccc(S(C)(=O)=O)c3)nn2)n1` [Compound L-84], the half-maximal inhibitory concentration (IC50) was 0.004 µM against A2A receptor and 0.024 µM against A2B receptor.

In the case of `Cc1c(C#N)cccc1-c1nc(N)c(F)c(-c2cn(Cc3cccc(C(C)(C)C#N)n3)nn2)n1` [Compound L-54], the IC50 at A2A receptor turned out to be 0.003 µM; against A2B receptor, 0.004 µM.

Turning to `Cc1c(C#N)cccc1-c1nc(N)c(Cl)c(-c2cn(Cc3cccn(C)c3=O)nn2)n1` [Compound L-13], the IC50 against A2A receptor turned out to be 0.001 µM; against A2B receptor it was 0.013 µM.

On to `Cc1c(C#N)cccc1-c1nc(N)c(F)c(-c2cn(Cc3cnn(C)n3)nn2)n1` [Compound L-47], for which the results for the IC50 against A2A receptor and at A2B receptor were 0.011 µM and 0.024 µM, respectively.

Take `Cc1c(C#N)cccc1-c1nc(N)c(Cl)c(-c2cn(Cc3cc(C(C)(C)O)[nH]n3)nn2)n1` [Compound L-22]: the values for the IC50 on A2A receptor and against A2B receptor were 0.01 µM and 0.001 µM, respectively.

`Cc1c(C#N)cccc1-c1nc(N)c(F)c(-c2cn(Cc3cccn(C4CC4)c3=O)nn2)n1` [Compound L-17]: the IC50 at A2A receptor stood at 0.001 µM; against A2B receptor, 0.007 µM.

Consider `Cc1c(C#N)cccc1-c1nc(N)c(F)c(-c2cn(Cc3cccc(C(F)F)n3)nn2)n1` [Compound L-73], for which the figures for the concentration for half-maximal inhibition (IC50) at A2A receptor and at A2B receptor were 0.003 µM and 0.005 µM, respectively.

`COCc1cccc(Cn2cc(-c3nc(-c4cccc(C#N)c4C)nc(N)c3F)nn2)n1` [Compound L-62]: the values for the IC50 at A2A receptor and against A2B receptor were 0.001 µM and 0.003 µM, respectively.

For `CCc1nccc(Cn2cc(-c3nc(-c4cccc(C#N)c4C)nc(N)c3Cl)nn2)n1` [Compound L-11], the IC50 on A2A receptor stood at 0.001 µM; at A2B receptor, 0.014 µM.

Regarding `COCCn1ccc(Cn2cc(-c3nc(-c4cccc(C#N)c4C)nc(N)c3F)nn2)n1` [Compound L-78], the IC50 against A2A receptor and on A2B receptor was 0.003 µM throughout.

Turning to `Cc1c(C#N)cccc1-c1nc(N)c(F)c(-c2cn(Cc3ccn(CC(C)(C)O)n3)nn2)n1` [Compound L-76], the IC50 stood at 0.005 µM on A2A receptor and 0.007 µM at A2B receptor.

On to `COC(C)c1cccc(Cn2cc(-c3nc(-c4cccc(C#N)c4C)nc(N)c3F)nn2)n1` [Compound L-86], for which the IC50 is less than 0.001 µM against A2A receptor and 0.001 µM against A2B receptor.

Regarding `Cc1c(C#N)cccc1-c1nc(N)c(F)c(-c2cn(Cc3ccn(CC4CCCO4)n3)nn2)n1` [Compound L-83], the values for the IC50 against A2A receptor and against A2B receptor were 0.003 µM and 0.007 µM, respectively.

Regarding `Cc1c(C#N)cccc1-c1nc(N)c(F)c(-c2cn(Cc3ccn(C(C)(C)C)n3)nn2)n1` [Compound L-51], the results for the IC50 at A2A receptor and at A2B receptor were 0.03 µM and 0.006 µM, respectively.

Regarding `CC(C)(O)c1cccc(Cn2cc(-c3nc(-c4cccc(C#N)c4F)nc(N)c3F)nn2)n1` [Compound L-5], the concentration for half-maximal inhibition (IC50) against A2A receptor was determined as 0.004 µM; against A2B receptor, 0.006 µM.

In the case of `Cc1c(C#N)cccc1-c1nc(N)c(F)c(-c2cn(Cc3cccc(C4(O)CCCC4)n3)nn2)n1` [Compound L-66], the IC50 on A2A receptor worked out at 0.003 µM; against A2B receptor it was 0.011 µM.

In the case of `Cc1c(C#N)cccc1-c1nc(N)c(F)c(-c2cn(Cc3cccc(C(C)(C)CO)n3)nn2)n1` [Compound L-63], the concentration for half-maximal inhibition (IC50) at A2A receptor stood at 0.001 µM; against A2B receptor it was 0.005 µM.

In the case of `Cc1c(C#N)cccc1-c1nc(N)c(F)c(-c2cn(Cc3ccn(C4CCOC4)n3)nn2)n1` [Compound L-77], the IC50 worked out at 0.001 µM on A2A receptor and 0.003 µM against A2B receptor.

Take `Cc1c(C#N)cccc1-c1nc(N)c(Cl)c(-c2cn(Cc3cccn(C(C)C)c3=O)nn2)n1` [Compound L-8]: the half-maximal inhibitory concentration (IC50) is less than 0.001 µM against A2A receptor and 0.003 µM on A2B receptor.

`Cc1c(C#N)cccc1-c1nc(N)c(Cl)c(-c2cnn(Cc3ccn(C)n3)c2)n1` [Compound L-33]: the half-maximal inhibitory concentration (IC50) is 0.002 µM on A2A receptor and 0.005 µM against A2B receptor.

`Cc1c(C#N)cccc1-c1nc(N)c(F)c(-c2cn(Cc3cccc(C(C)(O)C(F)(F)F)n3)nn2)n1` [Compound L-81]: the IC50 at A2A receptor worked out at 0.004 µM; on A2B receptor it was 0.023 µM.

For `Cc1c(C#N)cccc1-c1nc(N)c(F)c(-c2cn(Cc3cccc(N4CCN(C)CC4)n3)nn2)n1` [Compound L-72], the 50% inhibitory concentration (IC50) against A2A receptor came to 0.004 µM; against A2B receptor it was 0.014 µM.

As to `Cc1c(C#N)cccc1-c1nc(N)c(Cl)c(-c2cn(Cc3ccn(C4CC4)n3)nn2)n1` [Compound L-12], the IC50 against A2A receptor is less than 0.001 µM; against A2B receptor, 0.004 µM.

Consider `Cc1c(C#N)cccc1-c1nc(N)c(Cl)c(-c2cn(Cc3cccn(CC(C)(C)O)c3=O)nn2)n1` [Compound L-7], for which the concentration for half-maximal inhibition (IC50) on A2A receptor is less than 0.001 µM; against A2B receptor it was 0.007 µM.

Turning to `Cc1c(C#N)cccc1-c1nc(N)c(Cl)c(-c2cn(Cc3cc[nH]n3)nn2)n1` [Compound L-20], the half-inhibitory concentration (IC50) against A2A receptor amounted to 0.004 µM; at A2B receptor, 0.012 µM.

As for `Cc1c(C#N)cccc1-c1nc(N)nc(-c2cn(Cc3cccc(C(C)(C)O)n3)nn2)c1F` [Compound L-2], the IC50 stood at 0.062 µM on A2A receptor and 0.029 µM on A2B receptor.

As for `Cc1c(C#N)cccc1-c1nc(N)c(F)c(-c2cn(Cc3cccc(C(C)C)n3)nn2)n1` [Compound L-68], the 50% inhibitory concentration (IC50) against A2A receptor was found to be 0.002 µM; on A2B receptor, 0.011 µM.

For `Cc1c(C#N)cccc1-c1nc(N)c(F)c(-c2cn(Cc3cccc(N4CCC(O)C4)n3)nn2)n1` [Compound L-65], the figures for the IC50 against A2A receptor and against A2B receptor were 0.005 µM and 0.022 µM, respectively.

Regarding `Cc1c(C#N)cccc1-c1nc(N)c(F)c(-c2cn(Cc3cc(F)n(C)n3)nn2)n1` [Compound L-21], the figures for the IC50 against A2A receptor and on A2B receptor were 0.007 µM and 0.021 µM, respectively.

Turning to `Cc1c(C#N)cccc1-c1nc(N)c(F)c(-c2cn(Cc3ccn(CC(N)=O)n3)nn2)n1` [Compound L-29], the 50% inhibitory concentration (IC50) against A2A receptor was 0.009 µM; against A2B receptor, 0.008 µM.

As for `Cc1c(C#N)cccc1-c1nc(N)c(Cl)c(-c2cn(Cc3ccn(C(F)F)n3)nn2)n1` [Compound L-34], the IC50 on A2A receptor came to 0.002 µM; against A2B receptor, 0.008 µM.

`Cc1c(C#N)cccc1-c1nc(N)c(F)c(-c2cn(Cc3cc(C4CC4)n(C)n3)nn2)n1` [Compound L-92]: the half-inhibitory concentration (IC50) against A2A receptor amounted to 0.011 µM; against A2B receptor, 0.005 µM.

For the compound `Cc1c(C#N)cccc1-c1nc(N)c(F)c(-c2cn(Cc3nn(C)cc3F)nn2)n1` [Compound L-80], the IC50 was determined as 0.015 µM against A2A receptor and 0.013 µM against A2B receptor.

As to `Cc1c(C#N)cccc1-c1nc(N)c(F)c(-c2cn(Cc3ccn(C4CCN(C)C4)n3)nn2)n1` [Compound L-90], the figures for the IC50 against A2A receptor and against A2B receptor were 0.005 µM and 0.029 µM, respectively.

Regarding `Cc1c(C#N)cccc1-c1nc(N)c(F)c(-c2cn(Cc3cccc(N4CCOCC4)n3)nn2)n1` [Compound L-69], the IC50 at A2A receptor was 0.005 µM; at A2B receptor, 0.02 µM.

For `Cc1c(C#N)cccc1-c1nc(N)c(F)c(-c2cn(Cc3ccn(C(C)(C)CO)n3)nn2)n1` [Compound L-49], the concentration for half-maximal inhibition (IC50) was 0.001 µM on A2A receptor and 0.002 µM on A2B receptor.

(Values after patent US20230145793A1, “SUBSTITUTED PYRIMIDINE OR PYRIDINE AMINE DERIVATIVE, COMPOSITION THEREOF, AND MEDICAL USE THEREOF” (SHANGHAI HAIYAN PHARMACEUTICAL TECHNOLOGY CO., LTD., priority 2020, published 2023).)
